Assay results from ChEMBL document CHEMBL1287714, “5-amino-pyrazoles as potent and selective p38α inhibitors” (Bioorg Med Chem Lett, 2010).
≈ marks a conversion by molar mass, not a printed value. Values belong to the compound of their own block, whether it stands above or below them.

Experiments:
PBMC = experiment: Antiinflammatory activity in human PBMC assessed as inhibition of LPS-induced TNFalpha production; assay type: functional, cell-based
[1] = biological target: Mitogen-activated protein kinase 14 (Homo sapiens, UniProt Q16539); experiment: Inhibition of human recombinant p38alpha
Sequence of Mitogen-activated protein kinase 14 (Q16539 whole entry): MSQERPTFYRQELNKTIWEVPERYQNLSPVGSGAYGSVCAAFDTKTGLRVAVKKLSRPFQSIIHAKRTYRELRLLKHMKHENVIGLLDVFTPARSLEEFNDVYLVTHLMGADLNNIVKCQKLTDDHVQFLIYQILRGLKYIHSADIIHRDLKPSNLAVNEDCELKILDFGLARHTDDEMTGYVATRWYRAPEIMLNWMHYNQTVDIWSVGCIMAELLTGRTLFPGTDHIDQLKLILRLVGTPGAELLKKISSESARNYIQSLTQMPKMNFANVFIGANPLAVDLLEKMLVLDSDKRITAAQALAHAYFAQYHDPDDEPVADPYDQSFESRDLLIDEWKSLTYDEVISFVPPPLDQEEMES

[2] = biological target: Non-receptor tyrosine-protein kinase TYK2 (Homo sapiens, UniProt P29597); experiment: Inhibition of Tyk2
[3] = Inhibition of CaMK2
[4] = biological target: Tyrosine-protein kinase ITK/TSK (Homo sapiens, UniProt Q08881); experiment: Inhibition of Itk
[5] = Inhibition of GSK3
[6] = biological target: Signal transducer and activator of transcription 3 (Homo sapiens, UniProt P40763); experiment: Inhibition of STAT3
Cytochrome P450 2C9 = Cytochrome P450 2C9 (Homo sapiens, UniProt P11712); experiment: Inhibition of CYP2C9; assay type: ADME
Mus musculus = experiment: Antiinflammatory activity in mouse plasma assessed as inhibition of LPS-induced TNFalpha production at 5 mg/kg, po administered 24 hrs before LPS challenge measured after 90 mins; assay type: functional
Cytochrome P450 1A2 = Cytochrome P450 1A2 (Homo sapiens, UniProt P05177); experiment: Inhibition of CYP1A2; assay type: ADME
Sequence of Cytochrome P450 1A2 (P05177 whole entry): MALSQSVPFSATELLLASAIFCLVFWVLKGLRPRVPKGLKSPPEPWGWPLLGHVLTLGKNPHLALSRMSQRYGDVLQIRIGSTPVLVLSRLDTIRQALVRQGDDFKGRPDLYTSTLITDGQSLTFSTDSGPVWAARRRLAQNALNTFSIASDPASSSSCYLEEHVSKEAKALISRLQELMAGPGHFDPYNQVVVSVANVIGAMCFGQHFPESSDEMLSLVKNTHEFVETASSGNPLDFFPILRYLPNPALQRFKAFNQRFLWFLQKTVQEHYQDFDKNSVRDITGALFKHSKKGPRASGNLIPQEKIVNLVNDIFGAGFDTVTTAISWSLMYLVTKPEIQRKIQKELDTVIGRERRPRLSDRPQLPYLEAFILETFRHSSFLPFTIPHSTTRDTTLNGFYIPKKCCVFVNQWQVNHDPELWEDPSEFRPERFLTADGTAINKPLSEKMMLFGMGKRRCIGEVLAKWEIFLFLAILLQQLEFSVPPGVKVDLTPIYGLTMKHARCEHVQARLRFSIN

[7] = Inhibition of PDGF receptor
[8] = Metabolic rate in rat liver microsomes at 3 uM after 10 mins
[9] = biological target: Vascular endothelial growth factor receptor 2 (Homo sapiens, UniProt P35968); experiment: Inhibition of KDR
[10] = biological target: Protein kinase C delta type (Homo sapiens, UniProt Q05655); experiment: Inhibition of PKCdelta
[11] = Metabolic rate in human liver microsomes at 3 uM after 10 mins
[12] = biological target: Fibroblast growth factor receptor 1 (Homo sapiens, UniProt P11362); experiment: Inhibition of FGFR1
Sequence of Fibroblast growth factor receptor 1 (P11362 whole entry): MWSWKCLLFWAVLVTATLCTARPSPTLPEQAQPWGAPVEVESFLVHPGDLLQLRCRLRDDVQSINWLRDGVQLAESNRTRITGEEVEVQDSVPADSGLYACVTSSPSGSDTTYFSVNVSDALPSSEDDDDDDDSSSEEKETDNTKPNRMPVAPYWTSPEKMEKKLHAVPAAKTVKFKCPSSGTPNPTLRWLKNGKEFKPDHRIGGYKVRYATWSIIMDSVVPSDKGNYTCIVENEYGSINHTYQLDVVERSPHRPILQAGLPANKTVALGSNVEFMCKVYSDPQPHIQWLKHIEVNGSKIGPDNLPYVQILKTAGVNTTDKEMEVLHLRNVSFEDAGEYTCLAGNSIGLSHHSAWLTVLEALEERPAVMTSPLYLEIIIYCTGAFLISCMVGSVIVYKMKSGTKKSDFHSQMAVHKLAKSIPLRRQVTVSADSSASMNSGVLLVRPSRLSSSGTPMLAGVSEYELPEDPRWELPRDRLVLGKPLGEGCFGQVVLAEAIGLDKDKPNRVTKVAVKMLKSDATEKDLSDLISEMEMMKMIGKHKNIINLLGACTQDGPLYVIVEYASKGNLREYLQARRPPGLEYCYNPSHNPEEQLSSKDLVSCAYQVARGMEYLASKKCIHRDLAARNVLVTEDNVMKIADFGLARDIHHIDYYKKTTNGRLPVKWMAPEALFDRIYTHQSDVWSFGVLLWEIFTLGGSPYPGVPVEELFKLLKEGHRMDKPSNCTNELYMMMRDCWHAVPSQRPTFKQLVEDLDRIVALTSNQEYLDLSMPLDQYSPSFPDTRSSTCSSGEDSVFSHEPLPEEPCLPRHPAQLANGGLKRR

[13] = Aqueous solubility of the compound at pH 6.5; assay type: physicochemical
[14] = biological target: Tyrosine-protein kinase BTK (Homo sapiens, UniProt Q06187); experiment: Inhibition of Btk
[15] = Inhibition of Lckzeta
Cytochrome P450 3A4 = Cytochrome P450 3A4 (Homo sapiens, UniProt P08684); experiment: Inhibition of CYP3A4; assay type: ADME
Cytochrome P450 2C19 = Cytochrome P450 2C19 (Homo sapiens, UniProt P33261); experiment: Inhibition of CYP2C19; assay type: ADME
[16] = biological target: Protein kinase C alpha type (Homo sapiens, UniProt P17252); experiment: Inhibition of PKCalpha
[17] = Inhibition of PKCtau
[18] = Apparent permeability across human Caco-2 cells; assay type: ADME, cell-based; conditions: read-out: permeability
[19] = biological target: Tyrosine-protein kinase JAK3 (Homo sapiens, UniProt P52333); experiment: Inhibition of Jak3
[20] = Metabolic rate in mouse liver microsomes at 3 uM after 10 mins
Cytochrome P450 2D6 = Cytochrome P450 2D6 (Homo sapiens, UniProt P10635); experiment: Inhibition of CYP2D6; assay type: ADME
[21] = biological target: MAP kinase-activated protein kinase 2 (Homo sapiens, UniProt P49137); experiment: Inhibition of MK2
[22] = biological target: Serine/threonine-protein kinase PLK1 (Homo sapiens, UniProt P53350); experiment: Inhibition of PLK1
Sequence of Serine/threonine-protein kinase PLK1 (P53350 whole entry): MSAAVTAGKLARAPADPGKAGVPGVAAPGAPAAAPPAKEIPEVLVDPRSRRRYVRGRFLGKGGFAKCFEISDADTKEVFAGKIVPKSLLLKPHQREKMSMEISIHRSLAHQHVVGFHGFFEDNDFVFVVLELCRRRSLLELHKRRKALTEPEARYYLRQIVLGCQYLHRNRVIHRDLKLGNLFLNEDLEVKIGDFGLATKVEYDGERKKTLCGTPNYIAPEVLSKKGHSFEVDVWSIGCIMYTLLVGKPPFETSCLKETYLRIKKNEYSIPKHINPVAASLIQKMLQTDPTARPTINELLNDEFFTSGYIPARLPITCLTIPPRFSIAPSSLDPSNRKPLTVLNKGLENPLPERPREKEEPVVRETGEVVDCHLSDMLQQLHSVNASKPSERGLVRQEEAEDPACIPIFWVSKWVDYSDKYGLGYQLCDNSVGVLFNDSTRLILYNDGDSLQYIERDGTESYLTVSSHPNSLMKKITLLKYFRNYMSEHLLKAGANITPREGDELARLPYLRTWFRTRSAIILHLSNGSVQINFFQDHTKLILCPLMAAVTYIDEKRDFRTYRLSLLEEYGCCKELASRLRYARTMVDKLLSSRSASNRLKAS

[23] = biological target: Voltage-gated inwardly rectifying potassium channel KCNH2 (Homo sapiens, UniProt Q12809); experiment: Inhibition of human ERG by flux assay
Sequence of Voltage-gated inwardly rectifying potassium channel KCNH2 (Q12809 whole entry): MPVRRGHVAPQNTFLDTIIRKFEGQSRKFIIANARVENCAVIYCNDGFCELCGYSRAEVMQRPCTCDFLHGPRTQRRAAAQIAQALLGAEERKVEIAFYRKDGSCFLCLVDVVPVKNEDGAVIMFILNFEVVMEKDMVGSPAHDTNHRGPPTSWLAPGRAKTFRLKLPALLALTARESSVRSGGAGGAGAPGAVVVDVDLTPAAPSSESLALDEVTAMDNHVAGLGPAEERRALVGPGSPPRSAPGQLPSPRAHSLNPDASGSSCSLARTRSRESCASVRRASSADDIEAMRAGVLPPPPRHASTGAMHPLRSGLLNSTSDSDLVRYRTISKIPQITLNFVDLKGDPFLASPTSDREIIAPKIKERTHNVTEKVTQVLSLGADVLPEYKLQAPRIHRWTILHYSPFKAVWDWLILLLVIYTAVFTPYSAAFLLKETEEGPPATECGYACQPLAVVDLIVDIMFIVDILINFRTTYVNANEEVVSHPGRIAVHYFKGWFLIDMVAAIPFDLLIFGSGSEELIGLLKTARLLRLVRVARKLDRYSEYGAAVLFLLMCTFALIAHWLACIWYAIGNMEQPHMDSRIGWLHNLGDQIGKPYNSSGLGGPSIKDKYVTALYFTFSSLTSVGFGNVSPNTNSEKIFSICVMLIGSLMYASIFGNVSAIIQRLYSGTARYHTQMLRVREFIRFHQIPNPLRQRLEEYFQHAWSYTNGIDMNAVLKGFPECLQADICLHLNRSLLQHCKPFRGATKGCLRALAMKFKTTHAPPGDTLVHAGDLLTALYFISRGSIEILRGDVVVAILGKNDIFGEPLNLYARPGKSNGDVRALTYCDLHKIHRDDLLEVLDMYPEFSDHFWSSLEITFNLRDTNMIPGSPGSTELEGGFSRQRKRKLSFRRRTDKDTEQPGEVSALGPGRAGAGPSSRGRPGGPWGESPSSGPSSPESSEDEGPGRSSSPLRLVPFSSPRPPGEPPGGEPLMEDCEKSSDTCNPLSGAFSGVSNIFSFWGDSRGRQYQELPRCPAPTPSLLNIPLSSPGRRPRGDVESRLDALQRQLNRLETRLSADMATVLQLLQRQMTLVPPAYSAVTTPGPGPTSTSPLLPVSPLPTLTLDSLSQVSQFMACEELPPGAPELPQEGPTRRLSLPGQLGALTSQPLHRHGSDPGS

[24] = biological target: Insulin-like growth factor 1 receptor (Homo sapiens, UniProt P08069); experiment: Inhibition of IGF-1R
Sequence of Insulin-like growth factor 1 receptor (P08069 31-736 limits assumed): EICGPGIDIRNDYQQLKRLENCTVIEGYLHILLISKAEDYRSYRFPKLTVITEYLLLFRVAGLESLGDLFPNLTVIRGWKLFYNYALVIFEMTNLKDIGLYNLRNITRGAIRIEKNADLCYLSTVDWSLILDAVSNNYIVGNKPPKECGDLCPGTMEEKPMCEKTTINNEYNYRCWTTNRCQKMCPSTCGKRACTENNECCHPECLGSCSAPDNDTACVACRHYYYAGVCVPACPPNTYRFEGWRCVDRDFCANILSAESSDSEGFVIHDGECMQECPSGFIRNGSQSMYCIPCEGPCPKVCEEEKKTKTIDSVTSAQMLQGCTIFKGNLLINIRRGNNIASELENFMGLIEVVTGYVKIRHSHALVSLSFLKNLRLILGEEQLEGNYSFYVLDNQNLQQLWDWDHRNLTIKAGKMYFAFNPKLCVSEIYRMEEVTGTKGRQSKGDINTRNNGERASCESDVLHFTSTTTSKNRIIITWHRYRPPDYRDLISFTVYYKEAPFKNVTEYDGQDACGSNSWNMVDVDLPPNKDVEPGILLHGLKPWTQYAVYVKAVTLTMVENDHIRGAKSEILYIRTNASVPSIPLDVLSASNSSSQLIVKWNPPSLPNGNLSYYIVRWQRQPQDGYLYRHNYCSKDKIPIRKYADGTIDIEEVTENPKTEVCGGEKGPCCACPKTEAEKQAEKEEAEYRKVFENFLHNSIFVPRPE
Sequence of Insulin-like growth factor 1 receptor (P08069 741-1367 limits assumed): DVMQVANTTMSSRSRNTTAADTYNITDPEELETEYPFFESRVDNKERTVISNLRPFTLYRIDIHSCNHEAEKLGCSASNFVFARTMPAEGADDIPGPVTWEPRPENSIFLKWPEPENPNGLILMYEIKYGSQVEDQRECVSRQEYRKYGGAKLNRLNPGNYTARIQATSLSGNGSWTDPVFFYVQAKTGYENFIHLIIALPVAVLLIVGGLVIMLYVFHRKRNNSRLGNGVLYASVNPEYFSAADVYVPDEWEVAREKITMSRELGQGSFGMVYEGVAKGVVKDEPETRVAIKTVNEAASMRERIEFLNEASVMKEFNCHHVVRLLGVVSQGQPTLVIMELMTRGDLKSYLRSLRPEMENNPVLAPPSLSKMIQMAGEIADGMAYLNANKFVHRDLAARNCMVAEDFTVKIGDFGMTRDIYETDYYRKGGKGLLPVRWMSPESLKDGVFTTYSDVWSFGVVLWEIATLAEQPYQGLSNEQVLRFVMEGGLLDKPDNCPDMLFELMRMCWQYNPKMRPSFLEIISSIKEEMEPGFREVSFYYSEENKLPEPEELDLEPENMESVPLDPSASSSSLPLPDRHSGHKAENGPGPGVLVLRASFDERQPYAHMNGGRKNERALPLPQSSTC

[25] = Inhibition of VEGF receptor
[26] = biological target: Protein kinase C zeta type (Homo sapiens, UniProt Q05513); experiment: Inhibition of PKCzeta
[27] = biological target: Diacylglycerol O-acyltransferase 1 (Homo sapiens, UniProt O75907); experiment: Inhibition of DGAT

Compound: Cc1ccc(C(=O)Nc2ccon2)cc1NC(=O)c1cnn(-c2ccccc2)c1N
IC50 (PBMC): 1 nM

Compound: CCn1nccc1NC(=O)c1ccc(C)c(NC(=O)c2cnn(-c3ccc(F)cc3)c2N)c1
IC50 (PBMC): 2 nM
IC50 [1]: 2 nM

Compound: Cc1ccc(C(=O)Nc2ccon2)cc1NC(=O)c1cnn(-c2ccc(F)cc2)c1N
IC50 (PBMC): 2 nM
IC50 [1]: 2 nM

Compound: CCCCn1ncc(C(=O)Nc2cc(C(=O)Nc3ccon3)ccc2C)c1N
IC50 (PBMC): 2 nM
IC50 [1]: 2 nM

Compound: CCNc1c(C(=O)Nc2cc(C(=O)Nc3ccon3)ccc2C)cnn1-c1ccccc1C
IC50 (PBMC): 1 nM
IC50 [1]: 5 nM

Compound: Cc1ccc(C(=O)Nc2ccnn2C)cc1NC(=O)c1cnn(-c2ccccc2)c1N
IC50 (PBMC): 5 nM
IC50 [1]: 7 nM

Compound: Cc1ccc(C(=O)Nc2ccon2)cc1NC(=O)c1cnn(-c2ccccn2)c1N
IC50 (PBMC): 8 nM
IC50 [1]: 2 nM

Compound: Cc1ccc(C(=O)Nc2ccnn2C)cc1NC(=O)c1cnn(-c2ccccc2F)c1N
IC50 (PBMC): 2 nM
IC50 [1]: 4 nM

Continued by falling IC50 [1], values first:

IC50 [1]: 14 nM
Compound: CNC(=O)c1ccc(C)c(NC(=O)c2cnn(-c3ccccc3)c2N)c1
IC50 (PBMC): 48 nM

IC50 [1]: 8 nM
Compound: CCNC(=O)c1ccc(C)c(NC(=O)c2cnn(-c3ccccc3)c2N)c1
IC50 (PBMC): 16 nM

IC50 [1]: 7 nM
Compound: CCCCn1ncc(C(=O)Nc2cc(C(=O)Nc3ccnn3C)ccc2C)c1N
IC50 (PBMC): 17 nM

IC50 [1]: 7 nM
Compound: Cc1ccc(C(=O)NC2CC2)cc1NC(=O)c1cnn(-c2ccccc2)c1N
IC50 (PBMC): 26 nM

IC50 [1]: 6 nM
Compound: CCNC(=O)c1ccc(C)c(NC(=O)c2cnn(-c3ccccc3)c2NCC)c1
IC50 (PBMC): 15 nM

IC50 [1]: 5 nM
Compound: CNc1c(C(=O)Nc2cc(C(=O)Nc3ccon3)ccc2C)cnn1-c1ccccc1
IC50 (PBMC): 7 nM

IC50 [1]: 5 nM
Compound: CCn1nccc1NC(=O)c1ccc(C)c(NC(=O)c2cnn(-c3ccccc3)c2N)c1
IC50 (PBMC): 8 nM

IC50 [1]: 4 nM
Compound: CCNc1c(C(=O)Nc2cc(C(=O)Nc3ccon3)ccc2C)cnn1-c1ccccn1
IC50 (PBMC): 30 nM

IC50 [1]: 3 nM
Compound: CCn1nccc1NC(=O)c1ccc(C)c(NC(=O)c2cnn(-c3ccccc3F)c2N)c1
IC50 (PBMC): 5 nM

IC50 [2]: > 5000 nM
IC50 [3]: > 50000 nM
IC50 [4]: > 50000 nM
IC50 [5]: > 5000 nM
IC50 [6]: > 10000 nM
IC50 (Cytochrome P450 2C9): 23000 nM
IC50 (Cytochrome P450 1A2): > 40000 nM
IC50 [7]: 9200 nM
metabolic rate at 10 min, 3 µM [8]: 0 nmol/min/mg
IC50 [9]: > 50000 nM
IC50 [10]: > 40000 nM
metabolic rate at 10 min, 3 µM [11]: 0.001 nmol/min/mg
IC50 [12]: > 50000 nM
solubility [13]: 33 µg/mL (≈ 78.5 µM)
IC50 [14]: > 15000 nM
IC50 [15]: > 50000 nM
IC50 (Cytochrome P450 3A4): > 40000 nM
IC50 (Cytochrome P450 2C19): > 13000 nM
IC50 [16]: > 40000 nM
IC50 [17]: > 13000 nM
Papp [18]: 23.1 ×10⁻⁶ cm/s
IC50 [19]: > 10000 nM
metabolic rate at 10 min, 3 µM [20]: 0 nmol/min/mg
IC50 (Cytochrome P450 2D6): > 40000 nM
IC50 [21]: > 30000 nM
IC50 [22]: > 15000 nM
IC50 [24]: > 50000 nM
IC50 [25]: > 50000 nM
IC50 [1]: 2 nM
IC50 [26]: > 20000 nM
IC50 [27]: > 20000 nM
Compound: Cc1ccc(C(=O)Nc2ccon2)cc1NC(=O)c1cnn(-c2ccccc2F)c1N
inhibition in vivo at 5 mg/kg (Mus musculus): > 75%
IC50 (PBMC): 1 nM
IC50 [23]: > 160000 nM
